{"source": "patent US20050031604A1", "about": "“Isolation and purification procedure of vasopeptidase peptide inhibitors” (priority 2002, published 2005)", "key": {"[1]": {"target": "T1, C site of the ACE (human angiotensin converting enzyme mutant with only the C-terminal active site functional) (Homo sapiens, UniProt P12821, H390K/H394K)", "T1 construct": "The two ACE mutants were expressed as full-length proteins; made in house", "T1 sequence (P12821 30-1306 H390K/H394K)": "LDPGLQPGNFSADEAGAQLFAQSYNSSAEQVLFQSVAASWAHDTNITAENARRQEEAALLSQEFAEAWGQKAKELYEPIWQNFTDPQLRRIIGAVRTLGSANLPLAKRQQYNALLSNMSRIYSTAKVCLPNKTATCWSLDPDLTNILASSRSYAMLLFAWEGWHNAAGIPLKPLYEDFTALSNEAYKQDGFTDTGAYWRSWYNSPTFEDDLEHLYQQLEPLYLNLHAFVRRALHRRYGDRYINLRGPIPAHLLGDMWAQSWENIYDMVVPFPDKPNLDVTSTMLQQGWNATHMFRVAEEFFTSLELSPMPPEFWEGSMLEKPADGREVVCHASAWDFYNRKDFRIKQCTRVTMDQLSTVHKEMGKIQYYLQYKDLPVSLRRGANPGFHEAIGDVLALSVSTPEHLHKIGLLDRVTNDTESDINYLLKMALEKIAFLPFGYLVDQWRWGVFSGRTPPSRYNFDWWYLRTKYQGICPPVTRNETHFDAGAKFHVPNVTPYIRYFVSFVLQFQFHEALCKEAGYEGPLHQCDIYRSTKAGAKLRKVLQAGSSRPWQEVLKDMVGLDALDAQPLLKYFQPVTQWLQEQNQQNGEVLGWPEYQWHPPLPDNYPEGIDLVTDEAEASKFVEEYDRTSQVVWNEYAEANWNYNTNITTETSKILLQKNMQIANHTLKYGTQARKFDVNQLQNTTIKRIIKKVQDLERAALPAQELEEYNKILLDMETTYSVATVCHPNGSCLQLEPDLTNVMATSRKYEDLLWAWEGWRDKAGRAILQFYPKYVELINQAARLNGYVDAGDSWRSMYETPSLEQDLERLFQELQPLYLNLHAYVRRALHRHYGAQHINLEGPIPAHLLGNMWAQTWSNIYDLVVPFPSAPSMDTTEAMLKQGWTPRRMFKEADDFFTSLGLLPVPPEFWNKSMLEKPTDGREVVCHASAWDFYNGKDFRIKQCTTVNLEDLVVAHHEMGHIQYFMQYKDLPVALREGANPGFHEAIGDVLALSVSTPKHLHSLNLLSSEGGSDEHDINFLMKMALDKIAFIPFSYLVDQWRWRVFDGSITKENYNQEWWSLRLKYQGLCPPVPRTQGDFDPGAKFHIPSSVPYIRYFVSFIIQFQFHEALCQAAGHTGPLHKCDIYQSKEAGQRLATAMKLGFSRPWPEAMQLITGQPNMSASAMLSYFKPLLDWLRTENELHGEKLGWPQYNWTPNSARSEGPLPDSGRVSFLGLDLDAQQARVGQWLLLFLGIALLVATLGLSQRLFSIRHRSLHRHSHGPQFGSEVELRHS", "experiment": "Enzymatic assay of inhibition of the C-site of recombinant ACE", "assay_type": "biochemical", "description": "(§1) The wild-type human angiotensin converting enzyme (ACE) and two mutants, containing only one functional active site, were obtained through stable transfection of chinese hamster ovary cells with the ACE encoding cDNA. The two ACE mutants were expressed as full-length proteins, presenting one of the catalytic sites, N- or C-terminal, inactivated by substitution of the zinc binding histidine residues by lysine residues.\n(§2) The enzymatic assays were carried out at 25° C. with the substrate Mca-Ala-Ser-Asp-Lys-DpaOH, in a 50 mM Hepes buffer, pH 6.8, containing 200 mM NaCl and 10 μM ZnCl2. The reactions were continuously monitored by determining the raise in fluorescence at 390 nm emission wave length, and excitation at 340 nm, caused by the cleavage of the substrate (S=Km, 40 μM) by ACE, in a fluorimeter Fluorolite 10000 (Dynatech). The bradykinin potentiating peptides (BPPs) (inhibitors, were pre-incubated with the enzyme 90 min before the addition of the substrate."}, "[2]": {"target": "T2, N site of the ACE (human angiotensin converting enzyme mutant with only the N-terminal active site functional) (Homo sapiens, UniProt P12821, H988K/H992K)", "T2 construct": "The two ACE mutants were expressed as full-length proteins; made in house", "T2 sequence (P12821 30-1306 H988K/H992K)": "as the sequence (P12821 30-1306 H390K/H394K) above, with K361H, K365H, H959K, H963K counted along it", "experiment": "Enzymatic assay of inhibition of the N-site of recombinant ACE", "assay_type": "biochemical", "conditions": "pentapeptide, range stated in words", "description": "as §1, §2"}, "NEP": {"target": "NEP (Homo sapiens, UniProt P08473)", "sequence (P08473 whole entry)": "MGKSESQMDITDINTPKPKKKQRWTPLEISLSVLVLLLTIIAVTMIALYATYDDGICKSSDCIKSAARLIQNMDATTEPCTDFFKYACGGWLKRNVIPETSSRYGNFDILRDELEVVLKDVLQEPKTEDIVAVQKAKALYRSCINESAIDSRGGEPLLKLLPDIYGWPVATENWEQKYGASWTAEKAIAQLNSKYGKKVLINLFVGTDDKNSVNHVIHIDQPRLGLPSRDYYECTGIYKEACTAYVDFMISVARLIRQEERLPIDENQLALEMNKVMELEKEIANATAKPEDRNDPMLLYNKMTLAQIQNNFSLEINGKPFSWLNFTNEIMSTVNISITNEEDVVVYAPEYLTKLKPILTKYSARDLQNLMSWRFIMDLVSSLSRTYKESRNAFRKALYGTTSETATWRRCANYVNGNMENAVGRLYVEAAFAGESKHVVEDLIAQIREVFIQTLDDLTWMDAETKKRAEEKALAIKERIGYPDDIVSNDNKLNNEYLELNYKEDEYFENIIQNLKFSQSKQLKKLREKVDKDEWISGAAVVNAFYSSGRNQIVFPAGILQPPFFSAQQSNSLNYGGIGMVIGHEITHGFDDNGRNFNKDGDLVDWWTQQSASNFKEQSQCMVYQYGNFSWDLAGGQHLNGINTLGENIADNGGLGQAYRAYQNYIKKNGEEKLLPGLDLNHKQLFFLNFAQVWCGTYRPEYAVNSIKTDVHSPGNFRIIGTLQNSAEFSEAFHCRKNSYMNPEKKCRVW", "experiment": "Inhibition of NEP", "assay_type": "biochemical"}, "[3]": {"test_system": "isolated guinea pig ileum", "experiment": "Potentiation of the contractile activity of bradykinin on isolated guinea pig ileum", "description": "The potentiating activity of the pools of isolated peptides was tested on the contractile activity of bradykinin on smooth muscle, measured using a preparation of isolated guinea pig ileum. Female guinea pigs with a body weight between 160 and 180 g were used. Before starting the assays, the ileum was kept in TYRODE solution at 37° C. for 30 min. One of the ends of the isolated ileum segment, measuring 1.5 to 2.0 cm, was tied to a semi-ring located at the bottom of a glass container with a capacity of 5 mL, containing the TYRODE physiological solution at 37° C. under constant oxygen bubbling through a capillary. The other extremity of the ileum segment was tied to a previously calibrated registering arm. The tension on the arm was of 1 g, and the ileum contractions were recorded by an REC101 recorder (Pharmacia Biotech).\nIn order to determine the bradykinin potentiating effect of the samples, a log-dose curve of the effect of bradykinin on the ileum was plotted. Bradykinin activity was determined by measuring the contractions of the isolated guinea pig ileum, and the potentiating activity was expressed as a function of the increase in tissue response to a standard dose of bradykinin.\nPools and fractions were assayed individually and were added 30 seconds before the addition of a simple dose of bradykinin. […]"}, "[4]": {"test_system": "rat arterial blood pressure", "experiment": "Potentiation of the hypotensive effect of bradykinin in rats", "assay_type": "in vivo", "conditions": "concentrations of 300 nM", "description": "The hypotensive potentiating activity effect of bradykinin was tested in normotensive and hypertensive male and female Wistar rats, anesthetized with ethylic ether; a cannulae was introduced in the femoral vein for drug administration and in the femoral artery for blood pressure recording. A Gould polygraph was used coupled to a Statham Gould physiological transducer. The arterial pressure variation values were obtained by integration of the areas delimited by the pressure base line, and by comparing them with the values obtained in the control experiment. Toxin effect tests were carried out in normotensive and hypertensive rats by intra-vital microscopy using the mesenteric circulation. The animals were anesthetized, and their body temperature maintained by a heated plate, while the mesentery was trans-illuminated and observed through lenses coupled to a television camera. The vase diameters of these animals were measured with a micrometric screw. Tested substances were administered by a constant flow peristaltic pump or injected in bolus.\nWistar male rats with a body weight between 180 and 220 g were anesthetized with sodic pentabarbital (Hypnol® Cristalia, 50 mg/kg of body weight, intraperitoneally), while the body temperature was maintained between 36.5° C. and 37° C. by a heated plate. […]"}}, "note": "Non-standard residues stand in square brackets, D forms with d. Residues, ends and D or L forms follow the SMILES beside them. pGlu = O=C1CC[C@@H](C(=O)O)N1", "data": [{"smiles": "C[C@H](NC(=O)[C@H](Cc1c[nH]c2ccccc12)NC(=O)[C@H](CCCCN)NC(=O)[C@@H]1CCC(=O)N1)C(=O)N1CCC[C@H]1C(=O)O", "note": "[<E K W A P, Pyroglutamyl(<E)-Lysine(K)-tryptophane(W)-Alanine(A)-Proline (P)] ([pGlu]KWAP-OH)", "values": [{"measurement": "selectivity for the C-site of the ACE", "setting": "[1]; C site versus N site", "result": "not presenting a defined selectivity"}, {"measurement": "Ki for the C site of the ACE", "setting": "[1]; pentapeptide, range stated in words", "result": "in the μM range"}, {"measurement": "Ki for the N site of the ACE", "setting": "[2]", "result": "in the μM range"}, {"measurement": "Ki", "setting": "NEP", "result": "50 to 150", "unit": "µM"}, {"measurement": "concentrations that potentiate the contractile action of bradykinin on isolated guinea pig ileum", "setting": "[3]", "result": "15 to 300", "unit": "nM"}, {"measurement": "increase in the duration of the hypotensive effect compared to bradykinin alone", "setting": "[4]", "result": 5, "unit": "fold"}, {"measurement": "potentiation of the hypotensive effect of bradykinin", "setting": "[4]", "result": 60, "unit": "%"}]}]}
